Measurements: PMC5730604
Positions of bridges follow the written chain, without caps; N, C: chain ends. Non-standard residues stand in square brackets, D forms with d. Residues, ends and D or L forms follow the SMILES beside them. Chains are numbered I, II in the order given. *: point of attachment. PEG28 = NCCOCCOCCOCCOCCOCCOCCOCCOCCOCCOCCOCCOCCOCCOCCOCCOCCOCCOCCOCCOCCOCCOCCOCCOCCOCCOCCOCCOCCC(=O)O; Tyr(3-NO2) = N[C@@H](Cc1ccc(O)c([N+](=O)[O-])c1)C(=O)O; Hyp = O=C(O)[C@@H]1C[C@@H](O)CN1; For = O=C*

Tests used:
[1] = biological target: immobilized integrin α3β1 (VLA-3) (Homo sapiens, UniProt P26006); assay: biochemical
Procedure: Single cycle kinetic experiments were conducted on a Biacore 3000 system using a CM5 sensor chip at 25 and 37 °C with a flow rate of 10 µl/min. After coupling of the VLA-3 receptor (R&D Systems) via standard EDC/NHS immobilization chemistry (7 min activation with EDC/NHS followed by a 7 min flush with VLA-3) in 10 mM NaOAc buffer at pH 6 containing 1 mM MnCl2, a […] solution of ethanolamine was injected for 7 min to block all amine reactive sites. Subsequently the analyte was flushed over the chip surface at a flow rate of 10 µl/min in HEPES buffered saline supplemented with 1 mM MnCl2.

HT-29 cells = HT-29 cells (Homo sapiens, UniProt P26006); assay: Competition with 200 nM B9-Biotin (flow cytometry); type: binding
GPC-16 tumor cells = assay: GPC-16 tumor model in guinea pigs; type: in vivo, Guinea pig
Procedure: by incubation with a 1:50 dilution of the secondary antibody (biotinylated goat -ant i-r at Ig G, BD Pharmingen, #554014 ). After incubation with horseradish peroxidase (HRP) coupled streptavidin color development was performed using the DAB substrate kit. All immunohistochemical stained tissue sections were counterstained using haemalaun or […]
Assessment of anti-tumor efficacy in the GPC -16 tumor model in guinea pig GPC-16 cells (guinea pig colorectal adenocarcinoma) were acquired from LGC and were cultured in Eagle’s minimum essential medium with 10% FCS and 100 U/ml Penicillin and 100 µg/ml Streptomycin. For each experiment 10 f emale guinea pigs (8- 10 weeks old) per group were immunosuppressed with an intraperitoneal injection of 200 mg/kg cyclophosphamide (CPA) one day bef ore the tumor inoculation and repeated every 7- 10 days for 4 week s. Efficacy of the CPA treatment was verif ied by routine blood analysis bef ore f irst CPA treatment and on a week ly basis thereafter. For the evaluation of the anti-tumor efficacy of the Y9 the 10 animals were divided into two groups of 5 animals. […] The presence of tumors in the sk in sections was evaluated by a board certif ied veterinarian pathologist using a scoring system. […]
T o study whether a repeated subcutaneous dosing of Y9 has any local or systemic toxic effects on animals, the following dose escalation study was performed. […] B ody weig ht and general health observations were evaluated on a daily basis. […] Organs (sk in, brain, heart, k idney, liver, lung, ovaries/testis, spleen, local and distal lymph nodes, mesentery, small intestine, stomach, pancreas) were isolated af ter euthanasia with an isof lurane overdose for histopathology and body weight-normalized organ weights (brain, kidney, heart, liver, spleen) were calculated.
W eights of the carcass, brain, heart, kidney, liver and spleen were determined and body weight-normalized organ weight in % was calculated as follows: […]

Balb/c mice = assay: Dose escalation study and acute toxicity; type: in vivo, Mouse
Procedure: Dose escalation study and evaluation of acute toxicity in mice
T o study whether a repeated subcutaneous dosing of Y9 has any local or systemic toxic effects on animals, the following dose escalation study was performed. Groups of 5 Balb/c mice were inoculated subcutaneously with 100 µl of 0.9 % saline (NaCl) solution containing either 200 nmol, 400 nmol or 800 nmol Y9 . Two control groups (a total of 10 mice) received only 0.9% saline. T he injections were repeated every other day f or a total of seven injections. B ody weig ht and general health observations were evaluated on a daily basis. At day 4 after the last inoculation of the solutions blood was collected under isof lurane anesthesia f or hematology and f or serum analysis by retro- orbital puncture. Organs (sk in, brain, heart, k idney, liver, lung, ovaries/testis, spleen, local and distal lymph nodes, mesentery, small intestine, stomach, pancreas) were isolated af ter euthanasia with an isof lurane overdose for histopathology and body weight-normalized organ weights (brain, kidney, heart, liver, spleen) were calculated.
W eights of the carcass, brain, heart, kidney, liver and spleen were determined and body weight-normalized organ weight in % was calculated as follows:
Body weight-normalized organ weight [%] = organ weight [g] x 100 […]
The following serum parameters were analyzed with the Vitros 250 (Johnson&Johnson) machine measuring parameters at 25°C: […] (CK), alk aline Phosphatase (ALP), Amylase, GOT/AST, GPT/ALT, GGT, LDH, Lipase, total protein (TP), Glucose (GLU), Cholesterol (CHOL), Triglyceride (TRIG), blood urea nitrogen (BUN), Creatinine (CREA), total bilirubin (TBIL), inorganic Phosphorus (PHOS), Sodium (Na), Potassium (K), Calcium (Ca), […]
(MCHC), banded neutrophils, segmented neutrophils, lymphocytes (Lymphs), monocytes (Monos), eosinophils (EOS), basophils (BASO). The organ sections were histopathological […]
pathological abnormalities f ound. […]
glycerin (f inal concentration 227 µg/ml). […]
on a nitrocellulose membrane. For calibration, control serum was spiked with Y9 in […]
The membrane was washed 3
The membrane was f inally washed 3 times in […]
quantitated using Image J software. The calibration samples were used to prepare a linear […]
values of < 0.05 were considered signif icant.

[2] = fresh mouse serum, 60 µM, extraction and RP-HPLC (C4) quantification at 214 and 375 nm
Procedure: (§1) vor t exing the sample was incubated f or 48 h. At specif ic time points, the solution was again
(§2) vortexed, a sample (95 µl) was withdra wn and subjected to ultraf iltration (Vivaspin 500, 10 k Da
(§3) cutoff; 15 min, 16,000 g). The f iltrate was put on ice while the f ilter remainder was mixed with
(§4) an equal volume of ethanol (95%), vortexed and centrifuged (5 min, 16.000 g). W ith the
(§5) resulting supernatant, this procedure was repeated. The f inal supernatant was mixed with an
(§6) equal volume of f iltrate, shock frozen in liq uid nitr og en and stored at - 80 °C until analysis. RP -
(§7) HPLC analysis was performed using an analytical C4- RP column with a gradient of 5-65%
(§8) absorption at 214 and 375 nm (specif ic absorption maximum of the nitro-tyrosine building block
The absorption peak observed at the

in vitro = conditions: mouse, fresh mouse serum
Procedure: as §1, §2, §3, §4, §5, §6, §7, §8
The absorption peak observed at the

[3] = Balb/c mice, s.c. 200, 400 or 800 nmol every two days for 14 days
[4] = highest dose 800 nmol (printed 800 nm), repeated s.c., day 4 after last dose

HT-29 cells, sequence (P26006 33-1051): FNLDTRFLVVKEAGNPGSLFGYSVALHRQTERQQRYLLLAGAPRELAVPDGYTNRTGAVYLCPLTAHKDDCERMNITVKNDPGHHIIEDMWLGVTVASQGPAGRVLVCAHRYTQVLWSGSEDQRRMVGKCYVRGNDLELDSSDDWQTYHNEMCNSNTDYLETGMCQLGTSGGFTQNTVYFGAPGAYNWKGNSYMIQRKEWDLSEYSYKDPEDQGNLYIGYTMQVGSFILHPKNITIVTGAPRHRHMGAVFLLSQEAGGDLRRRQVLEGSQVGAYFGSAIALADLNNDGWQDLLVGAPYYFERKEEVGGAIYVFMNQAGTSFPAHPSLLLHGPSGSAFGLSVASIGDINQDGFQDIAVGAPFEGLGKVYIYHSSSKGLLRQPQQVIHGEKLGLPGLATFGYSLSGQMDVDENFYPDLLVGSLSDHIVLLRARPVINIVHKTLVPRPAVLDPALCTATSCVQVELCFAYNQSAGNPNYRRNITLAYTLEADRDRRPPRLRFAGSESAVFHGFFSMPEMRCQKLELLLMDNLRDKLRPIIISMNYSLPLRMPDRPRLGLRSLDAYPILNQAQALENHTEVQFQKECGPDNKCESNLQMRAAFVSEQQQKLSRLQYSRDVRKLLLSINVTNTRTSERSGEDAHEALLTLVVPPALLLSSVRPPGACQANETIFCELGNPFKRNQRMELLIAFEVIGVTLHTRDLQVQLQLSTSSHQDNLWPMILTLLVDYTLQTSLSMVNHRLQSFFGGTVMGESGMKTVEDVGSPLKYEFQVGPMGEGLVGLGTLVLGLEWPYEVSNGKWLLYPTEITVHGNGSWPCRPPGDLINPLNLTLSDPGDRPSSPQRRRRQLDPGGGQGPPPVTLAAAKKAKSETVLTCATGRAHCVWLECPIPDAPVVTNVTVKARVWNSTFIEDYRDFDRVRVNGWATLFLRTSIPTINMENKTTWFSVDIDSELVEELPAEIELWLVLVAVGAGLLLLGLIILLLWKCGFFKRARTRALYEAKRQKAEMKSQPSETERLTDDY
HT-29 cells, sequence (P05556 21-798 partner): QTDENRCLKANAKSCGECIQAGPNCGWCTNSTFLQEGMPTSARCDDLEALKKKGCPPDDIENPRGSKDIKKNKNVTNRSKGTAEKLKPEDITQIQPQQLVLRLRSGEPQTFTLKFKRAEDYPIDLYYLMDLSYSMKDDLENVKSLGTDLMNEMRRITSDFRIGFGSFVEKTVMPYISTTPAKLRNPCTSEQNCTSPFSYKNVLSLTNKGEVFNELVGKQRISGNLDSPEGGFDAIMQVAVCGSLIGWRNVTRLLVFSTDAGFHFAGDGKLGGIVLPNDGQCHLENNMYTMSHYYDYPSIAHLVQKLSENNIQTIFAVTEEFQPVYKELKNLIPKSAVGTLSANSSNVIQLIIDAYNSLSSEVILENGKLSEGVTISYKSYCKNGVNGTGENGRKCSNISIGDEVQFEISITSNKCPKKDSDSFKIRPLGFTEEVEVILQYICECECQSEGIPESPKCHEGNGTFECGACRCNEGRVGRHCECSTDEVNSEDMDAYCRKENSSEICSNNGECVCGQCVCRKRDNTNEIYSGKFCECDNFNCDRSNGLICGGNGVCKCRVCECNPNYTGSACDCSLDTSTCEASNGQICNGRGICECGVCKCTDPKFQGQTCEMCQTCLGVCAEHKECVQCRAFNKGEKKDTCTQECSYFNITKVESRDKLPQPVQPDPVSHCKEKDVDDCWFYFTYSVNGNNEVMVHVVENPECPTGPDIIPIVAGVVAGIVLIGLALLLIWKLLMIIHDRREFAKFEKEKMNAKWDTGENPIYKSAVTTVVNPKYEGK

CC[C@H](C)[C@H](NC(=O)[C@H](CCSC)NC=O)C(=O)N[C@@H](Cc1ccccc1)C(=O)N[C@@H](CC(C)C)C(=O)NCC(=O)NCC(=O)N[C@@H](CCCCNC(=O)CCOCCOCCOCCOCCOCCOCCOCCOCCOCCOCCOCCOCCOCCOCCOCCOCCOCCOCCOCCOCCOCCOCCOCCOCCOCCOCCOCCOCCNC(=O)[C@H]1CSSC[C@@H](N)C(=O)N[C@H](CC(=O)O)C(=O)NCC(=O)N[C@@H](Cc2ccc(O)c([N+](=O)[O-])c2)C(=O)NCC(=O)N2C[C@H](O)C[C@H]2C(=O)N[C@@H](CC(N)=O)C(=O)N1)C(=O)N[C@@H](CCCCNC(=O)CCOCCOCCOCCOCCOCCOCCOCCOCCOCCOCCOCCOCCOCCOCCOCCOCCOCCOCCOCCOCCOCCOCCOCCOCCOCCOCCOCCOCCNC(=O)[C@H]1CSSC[C@@H](N)C(=O)N[C@H](CC(=O)O)C(=O)NCC(=O)N[C@@H](Cc2ccc(O)c([N+](=O)[O-])c2)C(=O)NCC(=O)N2C[C@H](O)C[C@H]2C(=O)N[C@@H](CC(N)=O)C(=O)N1)C(=O)O [Y9] (I: H-[dC][dD]G[Tyr(3-NO2)]G[Hyp]N[dC][PEG28] / II: H-[dC][dD]G[Tyr(3-NO2)]G[Hyp]N[dC][PEG28] / III: For-MIFLGGKK-OH; disulfide I:1-I:8, II:1-II:8; amide I:C-III:7, II:C-III:8)
Kd [1]: 60 nM
concentration to displace B9-Biotin relative to the monovalent binder (HT-29 cells): four-fold lower
animals with tumors present after 35 days (GPC-16 tumor cells; single dose 200 nmol mixed with 1.6–2 × 10^7 GPC-16 cells and Matrigel, s.c., CPA-treated Dunkin Hartley guinea pigs, control 8 out of 9): 3 out of 10
reduction of establishment of GPC-16 based tumor (GPC-16 tumor cells; single dose treatment during injection of tumor cells, guinea pigs): 67%
undesired effects in guinea pigs (GPC-16 tumor cells; single s.c. dose 200 nmol): reddening at the injection site
hematological analysis including differential hemogram of white blood cells (Balb/c mice; Balb/c mice, repeated s.c. dosing): no significant changes
relative organ weights (Balb/c mice; Balb/c mice, repeated s.c. dosing, no histopathological abnormalities or steatosis in liver): slightly enlarged liver weight
histopathological effects in organs (Balb/c mice; Balb/c mice, s.c. 200 nmol every two days for 14 days, liver, kidney, pancreas, spleen, heart, lung, ovaries, brain, stomach, intestine, mesentery): No histopathological effects
histopathological effects in organs (Balb/c mice; Balb/c mice, s.c. 400 nmol every two days for 14 days, same organs): No histopathological effects
kidney histopathology (Balb/c mice; Balb/c mice, s.c. 800 nmol every two days for 14 days): moderate degenerative changes of the kidney
draining lymph nodes (Balb/c mice; [3]): mild but significant dose-dependent immune infiltration and lymphoid hyperplasia
local effects at the injection site (Balb/c mice; [3]): increased neutrophil and monocyte infiltrates at the injection site
amylase level in serum (Balb/c mice; [4]): significantly increased
blood urea nitrogen (BUN) level in serum (Balb/c mice; [4]): significantly increased
cholesterol level in serum (Balb/c mice; [4]): significantly increased
creatinine (CREA) level in serum (Balb/c mice; [4]): slightly but significant increased
lipase level in serum (Balb/c mice; [4]): slightly but significant increased
triglycerides level in serum (Balb/c mice; [4]): significantly increased
time Y9 remains largely intact [2]: > 24 h
metabolised at 48 h, 60 µM (in vitro): 20%
